Test results: patent US6953813B1, “2-Aminotetralin derivatives for the therapy of glaucoma” (Chiesi Farmaceutici S.p.A., priority 1999, dated 2005)

Assays:
[1] = system: New-Zealand albino rabbits; test: IOP after repeated administration in rabbits with α-chymotrypsin-increased IOP; assay type: in vivo, rabbit; conditions: two drops of 5% solution per eye every 6 hours
Experimental: The effectiveness of CHF 1035 after repeated administration was tested in a study versus placebo, in 20 New-Zealand albino rabbits. In order to induce a chronic increase of the IOP, each animal was intraocularly injected with 0.5 mg/day of α-chymotrypsin for five days. Starting from the first day of treatment, two drops of physiological saline containing 5% of the drug were instilled in each eye every 6 hours. The control animals only received physiological saline.
The IOP measurement was performed as described in example 1, before the injection and subsequently every day until the 10th day.
FIG. 2 reports the effect of CHF 1035 on rabbit IOP after α-chymotrypsin injection. Values are reported as mean (SE=1.2-2.6; n=20 per group).

[2] = system: normotensive Dutch Belted rabbits; test: Eye irritation by extent of eyelid closure after topical eyedrop; assay type: in vivo, rabbit; conditions: single dose 25 μl of 0.5%, 0.2%, 0.05% and 0.01% solution
Experimental: (§1) The experimental animals used were normotensive Dutch Belted rabbits of either gender (n=6). A single drop (25 μl) of the test solution was instilled unilaterally into the left eye (treated eye). IOP of the rabbits (treated and untreated eyes) was measured at 1 and 0 h before, and at 0.5, 1, 2, 3, 4, 5, 6 and 7 h after topical eyedrop administration. IOP at the time of eyedrop administration (0 h) was used as a baseline value. IOP was measured using a BioRad Pneumatonometer. More detailed description of the IOP measurement procedure can be found in Pharm. Res. 14, 1738-1743, 1997 and Curr. Eye Res. 14, 791-797, 1995. All the studies were set up using a randomized crossover design. At least 72 h of wash-out time was allowed for each rabbit between dosings. The irritation caused by an instilled eyedrop were evaluated by recording the extent of eyelid closure after topical eyedrop administration.

Ocular tolerability = assay type: in vivo
[3] = system: New-Zealand albino rabbits; test: IOP after single dose in rabbits with water-increased IOP; assay type: in vivo, rabbit; conditions: two drops of 5% solution per eye, one hour before 200 ml oral water
Experimental: A study versus placebo was carried out in 20 New-Zealand albino rabbits to evaluate the effects of CHF 1035 after single administration. Basal intraocular pressure (IOP) was measured in anaesthetized rabbits in both eyes. Each eye received two drops of physiological solution containing 5% of the drug. Control animals received only physiological solution. After one hour, the animals were administered by oral route with a total amount of 200 ml of distilled water. IOP increased within about one hour and normalized after about 3 hours. As no differences in IOP were observed between the two eyes, the respective tonometric curves were superimposed. IOP measurements were carried out by using a Goldman tonometer and were repeated one hour after the administration of water.
Values are expressed as mean (SE^132 1.6-2.7). The total number of eyes per group is in brackets.

[4] = system: normotensive Dutch Belted rabbits; test: Intraocular pressure (IOP) after single dose in normotensive rabbits; assay type: in vivo, rabbit
Experimental: Water (pH 4.5, made isotonic with sodium chloride), was selected as vehicle for the IOP-studies.
Five concentrations (0.01, 0.05, 0.2, 0.5 and 1.0% w/v) of CHF 1035 were studied. Brimonidine (0.2% w/v) was used as a positive, and vehicle (water pH 4.5) as a negative control.
as §1

[5] = topical single dose, normotensive rabbits

SMILES: CNC1CCc2c(ccc(OC(=O)C(C)C)c2OC(=O)C(C)C)C1 (racemic) [CHF 1035, (±)-(R,S)-5,6-diisobutyryloxy-2-methylaminotetralin]
- tolerability during the whole cycle of treatment [1]: well tolerated during the whole cycle of treatment and induced no eye irritation and/or discomfort
- IOP after α-chymotrypsin injection versus placebo ([1]; up to 10th day): significantly lower IOP than animals treated with placebo
- eye irritation (eyelid closure) [2]: no eyelid closure was observed
- concentration up to which well tolerated (no redness, blinking or other side effects) (Ocular tolerability): up to 5%
- IOP after water loading versus control animals [3]: IOP value significantly lower than control animals
- duration of action compared with brimonidine ([4]; normotensive rabbits): longer duration of action than brimonidine
- effectiveness in decreasing IOP compared with brimonidine ([4]; normotensive rabbits): more effective in decreasing IOP than brimonidine
- onset of action ([4]; normotensive rabbits): late onset of action
- IOP decrease in the untreated eye [4, 5]: no significant IOP decrease is observed in the untreated eye
- effect on IOP in the treated eye [4, 5]: decreases significantly the IOP in the treated eye
- IOP changes (mean ± SEM) in the treated eye ([4]; 0.01% w/v, 0 min): 0.0 ± 0.0 mmHg
- IOP changes (mean ± SEM) in the treated eye ([4]; 0.01% w/v, 30 min): −1.9 ± 0.9 mmHg
- IOP changes (mean ± SEM) in the treated eye ([4]; 0.01% w/v, 60 min): −4.2 ± 1.1 mmHg
- IOP changes (mean ± SEM) in the treated eye ([4]; 0.01% w/v, 120 min): −5.3 ± 0.7 mmHg
- IOP changes (mean ± SEM) in the treated eye ([4]; 0.01% w/v, 180 min): −5.0 ± 1.0 mmHg
- IOP changes (mean ± SEM) in the treated eye ([4]; 0.01% w/v, 240 min): −4.5 ± 1.3 mmHg
- IOP changes (mean ± SEM) in the treated eye ([4]; 0.01% w/v, 300 min): −4.3 ± 0.9 mmHg
- IOP changes (mean ± SEM) in the treated eye ([4]; 0.01% w/v, 360 min): −2.6 ± 0.6 mmHg
- IOP changes (mean ± SEM) in the treated eye ([4]; 0.01% w/v, 420 min): −1.3 ± 0.8 mmHg
- IOP changes (mean ± SEM) in the treated eye ([4]; 0.05% w/v, 0 min): 0.0 ± 0.0 mmHg
- IOP changes (mean ± SEM) in the treated eye ([4]; 0.05% w/v, 30 min): −0.4 ± 0.5 mmHg
- IOP changes (mean ± SEM) in the treated eye ([4]; 0.05% w/v, 60 min): −3.3 ± 0.4 mmHg
- IOP changes (mean ± SEM) in the treated eye ([4]; 0.05% w/v, 120 min): −6.5 ± 0.9 mmHg
- IOP changes (mean ± SEM) in the treated eye ([4]; 0.05% w/v, 180 min): −6.3 ± 0.9 mmHg
- IOP changes (mean ± SEM) in the treated eye ([4]; 0.05% w/v, 240 min): −6.7 ± 0.8 mmHg
- IOP changes (mean ± SEM) in the treated eye ([4]; 0.05% w/v, 300 min): −6.4 ± 0.8 mmHg
- IOP changes (mean ± SEM) in the treated eye ([4]; 0.05% w/v, 360 min): −5.5 ± 0.7 mmHg
- IOP changes (mean ± SEM) in the treated eye ([4]; 0.05% w/v, 420 min): −4.3 ± 0.5 mmHg
- IOP changes (mean ± SEM) in the treated eye ([4]; 0.2% w/v, 0 min): 0.0 ± 0.0 mmHg
- IOP changes (mean ± SEM) in the treated eye ([4]; 0.2% w/v, 30 min): 0.8 ± 0.9 mmHg
- IOP changes (mean ± SEM) in the treated eye ([4]; 0.2% w/v, 60 min): −0.4 ± 1.1 mmHg
- IOP changes (mean ± SEM) in the treated eye ([4]; 0.2% w/v, 120 min): −2.1 ± 0.7 mmHg
- IOP changes (mean ± SEM) in the treated eye ([4]; 0.2% w/v, 180 min): −6.0 ± 0.9 mmHg
- IOP changes (mean ± SEM) in the treated eye ([4]; 0.2% w/v, 240 min): −6.3 ± 1.0 mmHg
- IOP changes (mean ± SEM) in the treated eye ([4]; 0.2% w/v, 300 min): −7.6 ± 1.5 mmHg
- IOP changes (mean ± SEM) in the treated eye ([4]; 0.2% w/v, 360 min): −6.9 ± 1.0 mmHg
- IOP changes (mean ± SEM) in the treated eye ([4]; 0.2% w/v, 420 min): −5.7 ± 1.1 mmHg
- IOP changes (mean ± SEM) in the treated eye ([4]; 0.5% w/v, 0 min): 0.0 ± 0.0 mmHg
- IOP changes (mean ± SEM) in the treated eye ([4]; 0.5% w/v, 30 min): 1.8 ± 0.6 mmHg
- IOP changes (mean ± SEM) in the treated eye ([4]; 0.5% w/v, 60 min): 1.2 ± 0.7 mmHg
- IOP changes (mean ± SEM) in the treated eye ([4]; 0.5% w/v, 120 min): 0.1 ± 0.7 mmHg
- IOP changes (mean ± SEM) in the treated eye ([4]; 0.5% w/v, 180 min): −5.0 ± 1.2 mmHg
- IOP changes (mean ± SEM) in the treated eye ([4]; 0.5% w/v, 240 min): −5.6 ± 0.6 mmHg
- IOP changes (mean ± SEM) in the treated eye ([4]; 0.5% w/v, 300 min): −7.9 ± 0.9 mmHg
- IOP changes (mean ± SEM) in the treated eye ([4]; 0.5% w/v, 360 min): −6.9 ± 0.8 mmHg
- IOP changes (mean ± SEM) in the treated eye ([4]; 0.5% w/v, 420 min): −7.0 ± 0.8 mmHg
- IOP changes (mean ± SEM) in the treated eye ([4]; 1.0% w/v, 0 min): 0.0 ± 0.0 mmHg
- IOP changes (mean ± SEM) in the treated eye ([4]; 1.0% w/v, 30 min): 1.3 ± 0.9 mmHg
- IOP changes (mean ± SEM) in the treated eye ([4]; 1.0% w/v, 60 min): 0.4 ± 1.0 mmHg
- IOP changes (mean ± SEM) in the treated eye ([4]; 1.0% w/v, 120 min): 0.1 ± 0.9 mmHg
